# Measurements taken from the NIST ThermoML archive (doi:10.1016/j.fluid.2007.07.065).
# ± gives the expanded uncertainty stated by the source.
# Conditions: Crystal; Heating/Cooling curves
row,Normal melting temperature [°C],Structure (SMILES)
1,16.69 ± 0.1,CC(=O)O [acetic acid]
2,2.39 ± 0.1,NC=O [formamide]
3,-20.61 ± 0.1,CCC(=O)O [propanoic acid]
